Like-named read-outs stand apart in the source and are kept apart here.
Assays:
[1] = system: acute myelogenous leukemia cells (MV-4-11 cells)
[2] = biological target: BRD4 (BD1+BD2) bromodomain (Homo sapiens (Human), UniProt O60885); assay: BRD4 binding inhibition (AlphaScreen, GST-BRD4 vs tetraacetylated histone H4 peptide)
Procedure, shortened: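 AlphaScreen read after 30 min dark incubation at room temperature with glutathione acceptor/streptavidin donor beads (10 μg/ml each). The beads were added to compound plus 100 nM biotin-H4 (K5,8,12,16-acetyl) peptide and 100 nM GST-BRD4 BD1+BD2 in pH 7.4 HEPES/Tween/BSA/DTT buffer.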

[3] = system: thymus cancer cells (Ty-82 cells); assay: Cytotoxicity to thymus cancer cells (Ty-82 cells), WST-1; details: Homo sapiens, TY82, 72 h
Procedure: The following experiment was performed to evaluate the cytotoxicity of [1,2,4]triazolo[4,3-a]quinoxaline derivative according to the present invention to thymus cancer cells (Ty-82 cells).
First, thymus cancer cells (Ty-82 cells) were distributed in a 96 well plate at the density of 2.5×10^4 cells/well. 24 hours later, the plated cells were treated with the compounds of the present invention dissolved in DMSO at the different concentrations ranging from 0.01 μM to 10 μM. 72 hours later, the activities of the compounds were determined using WST-1 reagent.

[4] = system: acute myelogenous leukemia cells (MV-4-11 cells); assay: Cytotoxicity to acute myelogenous leukemia cells (MV-4-11 cells), CCK-8; details: Homo sapiens, MV4-11, 72 h
[5] = GST-BRD4 (BD1+BD2) / biotinylated acetyl-histone H4 (Lys5,8,12,16) peptide, read-out: IC50, BRD4 binding inhibition
[6] = GST-BRD4 (BD1+BD2) vs biotinylated acetyl-histone H4 peptide, AlphaScreen, read-out: BRD4 IC50
[7] = read-out: IC50, cytotoxicity against thymus cancer cells
[8] = read-out: Ty-82 Cytotoxicity IC50
[9] = read-out: IC50, cytotoxicity against acute myelogenous leukemia cells
[10] = read-out: MV-4-11 Cytotoxicity IC50

| Compound | IC50 [1] [nM] | IC50 [2, 5] [nM] | IC50 [2, 6] [nM] | IC50 [3, 7] [nM] | IC50 [3, 8] [nM] | IC50 [4, 9] [nM] | IC50 [4, 10] [nM] |
| --- | --- | --- | --- | --- | --- | --- | --- |
| COc1ccc2nc(NCCCCNC(=O)CC(C)(C)C)c3nnc(C)n3c2c1 [Example 124, [4-(8-methoxy-1-methyl-[1,2,4]triazolo[4,3-a]quinoxaline-4-ylamino)-butyl]-3,3-dimethyl-butyramide] | 700 | ≤ 50 | 29 | – | – | – | – |
| COc1cc2nc(NCCCCNC(=O)OCC(C)C)c3nnc(C)n3c2cc1C [Example 468, [4-(7-methoxy-1,8-dimethyl-[1,2,4]triazolo[4,3-a]quinoxaline-4-ylamino)-butyl]-carbamic acid isobutylester] | – | ≤ 50 | 22 | ≤ 500 | 230 | ≤ 200 | 73 |
| COc1cc2nc(NCCCCNC(=O)CC(C)C)c3nnc(C)n3c2cc1C [Example 469, N-[4-(7-methoxy-1,8-dimethyl-[1,2,4]triazolo[4,3-a]quinoxaline-4-ylamino)-butyl]-3-methyl-butyramide] | – | – | 55 | ≤ 500 | 94 | ≤ 200 | 10 |
| Cc1nnc2c(NCCCCNC(=O)[C@@H](O)C(C)C)nc3cc(N4CCSCC4)ccc3n12 [Example 525, N-[4-(7-thiomorphonyl-4-yl-1-methyl-[1,2,4]triazolo[4,3-a]quinoxaline-4-ylamino)-butyl]-2-(S)-hydroxy-3-methyl-butyramide] | 200 | ≤ 50 | 11 | – | – | – | – |
| CCc1nnc2c(NCCCCNC(=O)CC(C)C)nc3cc(OC)ccc3n12 [Example 622, [4-(7-methoxy-1-ethyl-[1,2,4]triazolo[4,3-a]quinoxaline-4-ylamino)-butyl]-3-methyl-butyramide] | 290 | ≤ 50 | 20 | – | – | – | – |
| Cc1nnc2c(NCCCCOC(=O)CC(C)(C)C)nc3ccccc3n12 [Example 633] | – | ≤ 50 | 24 | – | 900 | – | 750 |
